Laboratory results as given in PubChem BioAssay AID687000 (Broad Institute, 2013).
Several values for one entry are separate records, joined by “and”; a condition that tells them apart may be missing. Equal values may be shown once. Activity calls are given as the source filed them.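 Rule for the calls: active = fitted dose curve reaches 40% lysis signal rise at or below the highest valid concentration tested for that sample; inconclusive = flat fit between 30% and 70%, or poor curve fit; inactive = signal falls, stays flat within 30%, or no crossing.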

Test system: C. neoformans lysis, adenylate kinase release luminescence, 4 h
Test: C. neoformans lysis by adenylate kinase leakage – AK release luminescence, cherry-picks, dose response (AID 687000)

Row | Structure (SMILES) | AC40
1 | COc1cccc(NC(=S)N2CCC(Cc3ccccc3)CC2)c1 | 3.35 µM
2 | CCCNC(C)C(=O)Nc1ccccc1C (stereo unspecified) | > 15 µM (inactive)
3 | COC(=O)C1=C(C)N(Cc2ccc(F)cc2)C(=S)NC1c1ccc(Cl)cc1 (stereo unspecified) | > 15 µM (inactive)
4 | Cc1ccc(C(=O)NC(=S)Nc2ccccc2N2CCCC2)cc1[N+](=O)[O-] | > 15 µM (inactive)
5 | COC(=O)C1=C(C)N(Cc2ccccc2)C(=S)NC1c1cccc(Br)c1 (stereo unspecified) | 3.56 µM and > 15 µM (inactive)
6 | C[C@H]1CN([C@@H](C)CO)C(=O)c2ccccc2-c2ccccc2CO[C@H]1CN(C)S(=O)(=O)c1cccc(C#N)c1 | > 15 µM (inactive)
7 | C[C@H]1CN([C@@H](C)CO)C(=O)Cc2cc(N(C)C)ccc2O[C@@H]1CN(C)C(=O)Nc1ccc(C(F)(F)F)cc1 | > 15 µM (inactive)
8 | Cc1cccc(C)c1NC(=O)CN(C)C(=O)C1CCCCC1 | > 15 µM (inactive)
9 | COC(=O)C1=C(C)N(Cc2ccc(Cl)cc2)C(=S)NC1c1ccccc1 (stereo unspecified) | 2.53 µM
10 | NC(=S)N/N=C/c1ccc(-c2cc(Cl)ccc2Cl)o1 | 0.644 µM
11 | COc1cccc(S(=O)(=O)Nc2ccc3c(c2)[C@H]2C[C@H](CC(=O)N(C)C)O[C@@H](CO)[C@H]2O3)c1 | > 15 µM (inactive)
12 | Cc1cc(C)c2nc(N3CCN(C(=O)c4cccs4)CC3)sc2c1 | 2.56 µM
13 | S=C(Nc1ccc(Cl)cc1Cl)Nc1ccccc1Oc1ccccc1 | 3.3 µM
14 | C[C@H](O)C#Cc1ccc2c(c1)O[C@H](CN(C)Cc1ccncc1)[C@H](C)CN([C@H](C)CO)S2(=O)=O | > 15 µM (inactive)
15 | O=C(CSc1ncnc2c1cnn2-c1cccc(Cl)c1)NCC1CCCO1 (stereo unspecified) | > 15 µM (inactive)
16 | CCCC(=O)N1CCC1(C)C(=O)Nc1ccc(C)cc1 (stereo unspecified) | > 28.5 µM (inactive)
17 | Cc1cc(C(=O)NC(=S)Nc2ccccc2N2CCOCC2)ccc1[N+](=O)[O-] | 4.95 µM
18 | O=C(NCCc1ccccc1)[C@@H]1[C@@H](CO)[C@@H]2Cn3c(cccc3=O)[C@H]1N2C(=O)C1CCC1 | > 7.5 µM (inactive)

Row | Structure (SMILES) | AC40
19 | COC(=O)C1=C(C)N(Cc2ccc(Br)cc2)C(=S)NC1c1ccccc1 (stereo unspecified) | 2.1 µM
20 | O=C(NC(=S)NCC1COc2ccccc2O1)c1ccc(Cl)cc1 (stereo unspecified) | 3.44 µM
21 | COC(=O)C1=C(C)N(Cc2ccc(F)cc2)C(=S)NC1c1cccc(Br)c1 (stereo unspecified) | 6.51 µM
22 | COC(=O)C1=C(C)N(Cc2ccc(Cl)cc2)C(=S)NC1c1ccc(F)cc1 (stereo unspecified) | 2.23 µM and 3.73 µM
23 | CNC[C@@H]1OCCCC[C@@H](C)Oc2ccc(NS(=O)(=O)c3ccc(Cl)cc3)cc2C(=O)N([C@H](C)CO)C[C@H]1C | > 15 µM (inactive)
24 | CC(C)CC1(C)N=C(c2ccccc2)C(=S)N1 (stereo unspecified) | 11.2 µM
25 | CNC[C@@H]1OCCCC[C@@H](C)Oc2ccc(NC(=O)Nc3ccc4c(c3)OCO4)cc2C(=O)N([C@H](C)CO)C[C@@H]1C | > 15 µM (inactive)
26 | COC(=O)C1=C(C)N(CC(C)C)C(=S)NC1c1cccc(F)c1 (stereo unspecified) | > 15 µM (inactive) and 3.43 µM
27 | COc1cc(OC)c(N(C)C(=O)c2cn(C)c(=O)c3cc(OC)c(OC)cc23)cc1Cl | > 15 µM (inactive)
28 | C[C@@H]1CN([C@H](C)CO)S(=O)(=O)c2ccc(C#C[C@@H](C)O)cc2O[C@@H]1CN(C)Cc1ccncc1 | > 15 µM (inactive)
29 | CC(C)NC(=O)N(C)C[C@H]1OCCCC[C@H](C)Oc2ccc(NC(=O)c3ccccc3)cc2C(=O)N([C@@H](C)CO)C[C@@H]1C | > 15 µM (inactive)
30 | Cc1ccc(C(=O)NC(=S)Nc2ccc(N3CCOCC3)cc2)cc1 | 11.9 µM
31 | Cc1cc(C)c(NC(=O)C2CCCN2CCC(C)C)c(C)c1 (stereo unspecified) | > 15 µM (inactive)
32 | Cc1noc(C)c1S(=O)(=O)Nc1ccc2c(c1)CC(=O)N([C@H](C)CO)C[C@H](C)[C@@H](CN(C)S(=O)(=O)c1cn(C)cn1)O2 | > 15 µM (inactive)
33 | COC(=O)C1=C(C)N(Cc2ccc(Br)cc2)C(=S)NC1c1cccc(Cl)c1 (stereo unspecified) | 1.17 µM
34 | CO[C@H]1CN(C)C(=O)c2cc(NC(=O)C3CC3)ccc2OC[C@@H](C)N(Cc2cncnc2)C[C@H]1C | 12.9 µM
35 | O=C(NC(=S)Nc1ccc(Br)cc1)C1CCC1 | 1.05 µM
36 | COC(=O)C1=C(C)N(CC(C)C)C(=S)NC1c1ccc(Cl)cc1 (stereo unspecified) | 2.36 µM and 0.971 µM
